Measured values: US5599806A, “Hydrazino and hydroxyamino-14-β-hydroxyandrostane derivatives active on the cardiovascular system processes for their preparation and pharmaceutical compositions containing same” (Sigma-Tau Industrie Farmaceutiche Riunite S.p.A., priority 1994, dated 1997)

Key:
Na^+, K^+ -ATPase = details: reported in literature / other filings; cited from earlier work
[1] = reported in literature; cited from earlier work
[2] = molecular target: Na^+, K^+ -ATPase receptor; assay: displacement of the specific ^3 H-ouabain binding from the Na^+, K^+ -ATPase receptor; details: ^3 H-ouabain displacement, purified Na^+
Source text: a) displacement of the specific ^3 H-ouabain binding from the Na^+, K^+ -ATPase receptor purified according to Jorghensen (Jorghensen P., BBA, 1974, 356, 36) and Erdmann (Erdmann E. et al., Arzneim. Forsh., 1984, 34, 1314);

[3] = molecular target: T1, purified Na^+, K^+ -ATPase (Canis lupus familiaris, UniProt P50997); assay: inhibition of the activity of the purified Na^+, K^+ -ATPase (hydrolysis of ^32 P-ATP); type: biochemical
T1 construct: from tissue
Source text: To test the affinity for the receptor site of the Na^+, K^+ -ATPase and the inhibition of the activity of the enzyme, the following tests were used:
b) inhibition of the activity of the purified Na^+, K^+ -ATPase measured as % of hydrolysis of ^32 P-ATP in the presence and in the absence of the tested compound (Doucet A. et al., Am. J. Physiol., 1986, 251, F851)

[4] = system: spontaneous hypertensive rats (MHS); assay: effect of 5 week-treatment in spontaneous hypertensive rats (MHS) on the development of hypertension (SBP and HR, tail cuff method); type: in vivo, rat; details: 5 weeks, in Methocel 0.5% w/v; for SBP: controls 170 +/- 5.5; for HR: controls 378 +/- 12.0
Procedure: Systolic blood pressure (SBP) and hear rate (HR) were measured, by the tail cuff method, in young prehypertensive male rats (MHS or SHR) strains before the development of hypertension (4 weeks of age) for recording the basal values of SBP. Groups of 7 rats were formed and subdivided in control and treated groups.
The compound, suspended in Methocel 0.5% (w/v), was orally given daily for at least 5 weeks to the treated groups. The control group received only Methocel.
SBP and HR were measured weekly 6 and 24 hrs after treatment. After 5 weeks of treatment, when hypertension was fully developed in the control group (9 weeks of age), washout was started for at least one week, to verify whether the treatment maintained blood pressure low or reestablished the basal values.
(Takeda K. et al., Japan J. Pharmacol., 1979, 29, 171; Takeda K. et al. Japan J. Pharmacol., 1982, 32, 283; Richer C. et al. Eur. J. Pharmacol, 1978, 47,393).

In the case of `C[C@]12CC[C@H](O)C[C@H]1CC[C@@H]1[C@@H]2CC[C@]2(C)C(=NNC(=N)N)CC[C@]12O` [17-guanidinoimino-5β-androstane-3β,14β-diol], the “inhibition of Na^+, K^+ -ATPase” value (Na^+, K^+ -ATPase) is given as “weak inhibitors of Na^+, K^+ -ATPase”.

In the case of `C[C@]12CC[C@H](O)C[C@H]1CC[C@@H]1[C@@H]2CC[C@]2(C)[C@@H](C=NNC(=N)N)CC[C@]12O` [17β-guanidinoiminomethyl-5β-androstane-3,β,14β-diol], the “inhibition of Na^+, K^+ -ATPase” value (Na^+, K^+ -ATPase) is listed as “weak inhibitors of Na^+, K^+ -ATPase” and the positive inotropic activity [1] is listed as “weak positive inotropic agents”.

For `CN(C)CCONC[C@H]1CC[C@]2(O)[C@@H]3CC[C@@H]4C[C@@H](OCCCN)CC[C@]4(C)[C@H]3CC[C@]12C` [Comp. I-bb, 3β-(3-Aminopropoxy)-17β-(2-dimethylaminoethoxyamino)methyl-5β-androstane-14β-ol], the “Binding ^3 H-Ouab. Displacement (-log IC50)” value [2] was 6.3, the IC50 [3] was 31.6 µM and the SBP ([4]; 1 mg/Kg/os daily) was 153 +/- 6.2 mm Hg. The HR ([4]; 1 mg/Kg/os daily) was 367 +/- 14.3 beats/min, the SBP ([4]; 10 mg/Kg/os daily) was 150 +/- 4.2 mm Hg and the HR ([4]; 10 mg/Kg/os daily) was 375 +/- 12.1 beats/min.

With `C[C@]12CC[C@H](O)C[C@H]1CC[C@@H]1[C@@H]2CC[C@]2(C)[C@@H](CNOCCN)CC[C@]12O` [Comp. I-aj, 17β-(2-Aminoethoxyamino)methyl-5β-androstane-3β,14β-diol] the “Binding ^3 H-Ouab. Displacement (-log IC50)” value [2] was 7.2, the IC50 [3] was 1 µM and the SBP ([4]; 0.1 mg/Kg/os daily) was 150 +/- 4.1 mm Hg. For the same compound, the HR ([4]; 0.1 mg/Kg/os daily) was 372 +/- 11.7 beats/min.
